This note sets out measurements from patent US20090069405A1, “TREATMENT OF CNS AND PAIN DISORDERS” (Valexfarm, Ltd., priority 2007, published 2009).

Format in all cases: in vivo
In assay [1] the test system is mice. In words: Tail-flick test. The method, then: Tail-flick test. The tail-flick test, using a radiant heat source was carried out to study antinociception. Each mouse was placed in an acrylic tube and its tail was laid across a Nichrome™ wire coil, which was heated by the passage of an electric current. The intensity of the current was kept at 5 mA. All animals were screened for the tail-flick response. Only those showing a flick within 4 sec were included in the study. After 1 h of final dosing, the mice were submitted to three tail-flick tests.
A general note: Thermal pain tests record how soon the animal reacts.

The test system of assay [2] is mice. Put plainly: Forced Swim Test. The procedure: Forced Swim Test. The test apparatus consisted of a clear plastic cylindrical tank, 35 cm high and 25 cm in diameter, which was filled to a depth of 25 cm with tap water equilibrated overnight to room temperature (24° C.). A glass plate covered the top of the tank to prevent escape while the mouse was swimming. The water in the tank was replaced by fresh water at room temperature after three mice had been tested. To habituate the mouse, it was forced to swim in the tank for 15 min., then removed and dried by toweling and a heat lamp, and returned to its cage. Twenty-four hours later, the mouse was returned to the tank and allowed to swim for 5 min. while its swimming activity was recorded by a video camera, mounted above the tank. After this, the mouse was dried and returned to its cage. End points of the test were total time spent floating in an immobile position, without paddling of limbs (swimming) (Porsolt et al. Nature (1977) 266:730-732).

The subject of assay [3] is mice. In words: Formalin paw test. Conditions: formalin 4.5%, 20 μl, left hind paw, dose 30 mg/kg, compared to control. The procedure:
Formalin paw test. The mice received an injection of formalin (4.5%, 20 μl) to the left hind paw. The irritation caused by the formalin injection elicits a characteristic biphasic behavioral response as quantified by the amount of time spent licking the injured paw. The first phase (˜5-10 minutes) represents direct chemical […], and the second phase (˜20-30 minutes) is thought to represent pain of neuropathic origin (Tjølsen A et al. Pain (1992) 51:5-17). The two phases are separated by a quiescent period in which behavior returns to normal. The effectiveness of test compounds to reduce the painful stimuli is assessed by counting the amount of time spent licking the injured paw in the two phases.

Assay [4] deals with mice. Put plainly: Hot plate test. Conditions: peroral administration, 50 mg/kg, plate 55.0±0.5° C., 30 min after compound. The procedure:
Hot plate test. Male mice weighing from 25 to 30 g were used in this test. […] The surface of the plate was maintained at a temperature of 55.0±0.5° C. […] Time (in seconds) to either hind paw licking or jumping was recorded as pain response latency. To avoid the likelihood of tolerance of mice to hot plate, all mice were exposed to hot plate only once through the whole experiment. The mice were exposed to hot plate only once; either before or after injection of drug.

With `O=C1CNC(=O)/C1=C\NCc1ccccc1` [tetramic derivative of the invention], the “analgesic effect (tail-flick) compared to phenytoin and valproate” value in the assay on mice [1] (highest dose tested 500 mg/kg, versus phenytoin 100 mg/kg and valproate 500 mg/kg) was “relatively better analgesic effect”. Further, the “analgesic effect (tail-flick)” value with mice [1] (peroral administration, 1 h after final dosing) is recorded as “analgesic effect”. In addition, in the assay on mice [2] (100 mg/kg), the “antidepressive effect (total time spent floating immobile)” value (shortened to “antidepressive effect”) was “significant antidepressive effect”. Besides, the “reduction in pain score in the chronic phase” value in the assay on mice [3] came to 5%. In addition, the “analgesic effect (pain response latency, hot plate)” value in the assay on mice [4] was “analgesic effect”.
With `CCCC(CCC)C(=O)[O-].[Na+]` [sodium valproate], in the assay on mice [2] (250 mg/kg), the “antidepressive effect” value is listed as “significant effect”.
Turning to `NC(=O)N1c2ccccc2C=Cc2ccccc21` [carbamazepine], the “antidepressive effect” value in the assay with mice [2] (50 mg/kg) is “significant effect”.
